From PubChem BioAssay AID2060496 (Molecular Pharmacology Branch, DTP, NCI, 2025)

Tested on: 276233-004-R-J1-PDC complex spheroid viability
Experiment: Anticancer human tumor 276233-004-R-J1-PDC patient-derived colon adenocarcinoma cell line growth inhibition [GQUAD]
Conditions: for IC50: curve of first compound; for viability, T/C: stronger effect = lower value
How it was run: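 Viability of tumor cells grown as complex spheroids with endothelial and stromal cells, exposed to drug combinations. Top concentration at or near clinical Cmax (else 10 microM), diluted in half-log increments.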

[1] = second compound 0.0316 µM, first compound 0.0316 µM
[2] = second compound 0.0316 µM, first compound 0.1 µM
[3] = second compound 0.0316 µM, first compound 0.316 µM
[4] = second compound 0.0316 µM, first compound 1 µM
[5] = second compound 0.0316 µM, first compound 3.16 µM
[6] = second compound 0.0316 µM, first compound 10 µM
[7] = second compound 0.1 µM, first compound 0.0316 µM
[8] = second compound 0.1 µM, first compound 0.1 µM
[9] = second compound 0.1 µM, first compound 0.316 µM
[10] = second compound 0.1 µM, first compound 1 µM
[11] = second compound 0.1 µM, first compound 3.16 µM
[12] = second compound 0.1 µM, first compound 10 µM
[13] = second compound 0.316 µM, first compound 0.0316 µM
[14] = second compound 0.316 µM, first compound 0.1 µM
[15] = second compound 0.316 µM, first compound 0.316 µM
[16] = second compound 0.316 µM, first compound 1 µM
[17] = second compound 0.316 µM, first compound 3.16 µM
[18] = second compound 0.316 µM, first compound 10 µM
[19] = second compound 1 µM, first compound 0.0316 µM
[20] = second compound 1 µM, first compound 0.1 µM
[21] = second compound 1 µM, first compound 0.316 µM
[22] = second compound 1 µM, first compound 1 µM
[23] = second compound 1 µM, first compound 3.16 µM
[24] = second compound 1 µM, first compound 10 µM
[25] = second compound 3.16 µM, first compound 0.0316 µM
[26] = second compound 3.16 µM, first compound 0.1 µM
[27] = second compound 3.16 µM, first compound 0.316 µM
[28] = second compound 3.16 µM, first compound 1 µM
[29] = second compound 3.16 µM, first compound 3.16 µM
[30] = second compound 3.16 µM, first compound 10 µM
[31] = second compound 10 µM, first compound 0.0316 µM
[32] = second compound 10 µM, first compound 0.1 µM
[33] = second compound 10 µM, first compound 0.316 µM
[34] = second compound 10 µM, first compound 1 µM
[35] = second compound 10 µM, first compound 3.16 µM
[36] = second compound 10 µM, first compound 10 µM
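Further: spheroids exposed to drugs for seven days.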
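Wherever viability, T/C is given: 100% = DMSO vehicle control viability.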

O=C(c1cc(Cc2n[nH]c(=O)c3ccccc23)ccc1F)N1CCN(C(=O)C2CC2)CC1 + CN(C)c1ccc(Nc2c3ccc(NC(=O)CCN4CCCC4)cc3nc3cc(NC(=O)CCN4CCCC4)ccc23)cc1
IC50 (second compound 0.0316 µM): > 10 µM | IC50 (second compound 0.1 µM): > 10 µM | IC50 (second compound 0.316 µM): > 10 µM | IC50 (second compound 1 µM): > 10 µM | IC50 (second compound 3.16 µM): > 10 µM | IC50 (second compound 10 µM): < 0.0316 µM | viability, T/C [1]: 76.4% | viability, T/C [2]: 83.4% | viability, T/C [3]: 91.8% | viability, T/C [4]: 125% | viability, T/C [5]: 77.4% | viability, T/C [6]: 82% | viability, T/C [7]: 98.9% | viability, T/C [8]: 100% | viability, T/C [9]: 97.6% | viability, T/C [10]: 84.4% | viability, T/C [11]: 76% | viability, T/C [12]: 88.1% | viability, T/C [13]: 75.5% | viability, T/C [14]: 73.8% | viability, T/C [15]: 69.5% | viability, T/C [16]: 65% | viability, T/C [17]: 81.4% | viability, T/C [18]: 68.6% | viability, T/C [19]: 71.4% | viability, T/C [20]: 55.4% | viability, T/C [21]: 49.8% | viability, T/C [22]: 52.9% | viability, T/C [23]: 52% | viability, T/C [24]: 55.5% | viability, T/C [25]: 52.7% | viability, T/C [26]: 53.4% | viability, T/C [27]: 52.1% | viability, T/C [28]: 55.6% | viability, T/C [29]: 48.5% | viability, T/C [30]: 53.1% | viability, T/C [31]: 41.7% | viability, T/C [32]: 63.3% | viability, T/C [33]: 48.9% | viability, T/C [34]: 57% | viability, T/C [35]: 55.2% | viability, T/C [36]: 67.3%

C=CC(=O)N1CCN(c2nc(=O)n(-c3c(C)ccnc3C(C)C)c3nc(-c4c(O)cccc4F)c(F)cc23)C(C)C1 (stereo unspecified) + Cc1[nH]c2ccc(F)cc2c1-c1nc2c3cccnc3c3ncccc3c2[nH]1
IC50 (second compound 0.0316 µM): > 10 µM | IC50 (second compound 0.1 µM): > 10 µM | IC50 (second compound 0.316 µM): > 10 µM | IC50 (second compound 1 µM): > 10 µM | IC50 (second compound 3.16 µM): > 10 µM | IC50 (second compound 10 µM): < 0.0316 µM | viability, T/C [1]: 106% | viability, T/C [2]: 95.5% | viability, T/C [3]: 85.4% | viability, T/C [4]: 90% | viability, T/C [5]: 95.2% | viability, T/C [6]: 88.5% | viability, T/C [7]: 102% | viability, T/C [8]: 91.9% | viability, T/C [9]: 103% | viability, T/C [10]: 108% | viability, T/C [11]: 81.4% | viability, T/C [12]: 93% | viability, T/C [13]: 75.5% | viability, T/C [14]: 94.9% | viability, T/C [15]: 74.5% | viability, T/C [16]: 83.4% | viability, T/C [17]: 87.4% | viability, T/C [18]: 84.4% | viability, T/C [19]: 81.4% | viability, T/C [20]: 90.4% | viability, T/C [21]: 78.4% | viability, T/C [22]: 73.4% | viability, T/C [23]: 84.9% | viability, T/C [24]: 80.9% | viability, T/C [25]: 70.7% | viability, T/C [26]: 50.6% | viability, T/C [27]: 49.4% | viability, T/C [28]: 52.3% | viability, T/C [29]: 68.6% | viability, T/C [30]: 52.2% | viability, T/C [31]: 39% | viability, T/C [32]: 38.7% | viability, T/C [33]: 61% | viability, T/C [34]: 53.1% | viability, T/C [35]: 56% | viability, T/C [36]: 51%

CCCS(=O)(=O)Nc1ccc(F)c(C(=O)c2c[nH]c3ncc(-c4ccc(Cl)cc4)cc23)c1F + CN(C)c1ccc(Nc2c3ccc(NC(=O)CCN4CCCC4)cc3nc3cc(NC(=O)CCN4CCCC4)ccc23)cc1
IC50 (second compound 0.0316 µM): > 10 µM | IC50 (second compound 0.1 µM): > 10 µM | IC50 (second compound 0.316 µM): > 10 µM | IC50 (second compound 1 µM): > 10 µM | IC50 (second compound 3.16 µM): > 10 µM | IC50 (second compound 10 µM): < 0.0316 µM | viability, T/C [1]: 81.6% | viability, T/C [2]: 83.2% | viability, T/C [3]: 78% | viability, T/C [4]: 102% | viability, T/C [5]: 91% | viability, T/C [6]: 65.2% | viability, T/C [7]: 76.4% | viability, T/C [8]: 80% | viability, T/C [9]: 78.2% | viability, T/C [10]: 77.1% | viability, T/C [11]: 71% | viability, T/C [12]: 70.8% | viability, T/C [13]: 72.9% | viability, T/C [14]: 64.3% | viability, T/C [15]: 68.8% | viability, T/C [16]: 63% | viability, T/C [17]: 65.3% | viability, T/C [18]: 55.1% | viability, T/C [19]: 60.2% | viability, T/C [20]: 58.2% | viability, T/C [21]: 56.8% | viability, T/C [22]: 65.2% | viability, T/C [23]: 53.3% | viability, T/C [24]: 63.4% | viability, T/C [25]: 62.1% | viability, T/C [26]: 56.6% | viability, T/C [27]: 50.8% | viability, T/C [28]: 46.1% | viability, T/C [29]: 59.1% | viability, T/C [30]: 55.6% | viability, T/C [31]: 33.9% | viability, T/C [32]: 45.9% | viability, T/C [33]: 40.4% | viability, T/C [34]: 38.2% | viability, T/C [35]: 39.3% | viability, T/C [36]: 56.6%
